Results as given in US20070037800A1, “Method of treating neurological disorders using clotrimazole and derivatives thereof” (EnVivo Pharmaceuticals, Inc., priority 2005, published 2007).
Values joined by “and” are separate entries in the source; they are usually repeats but may differ in a detail not shown here. Identical values can stand only once.

Experiments:
[1] = system: HD model flies (elav-GAL4 UAS-htt128Q); test: Assay of locomotor activity (climbing speed) using the transgenic Drosophila HD model; format: in vivo; design: Early Speed Effect Size, Summary / Late Speed Effect Size, Summary / Early Speed Effect Size / Late Speed Effect Size / Early Speed Adj Value / Late Speed Adj Value / Early Speed Effect Size, combined campaigns / Late Speed Effect Size, combined campaigns: unit not given here; conditions: for Early Speed Effect Size, combined campaigns / Early Speed Percent TSA, combined campaigns / Early Speed Effect Size / Early Speed Adj Value / Early Speed Percent TSA: days 1 to 7; for Early Speed Effect Size, combined campaigns / Early Speed Percent TSA, combined campaigns / Late Speed Effect Size, combined campaigns / Late Speed Percent TSA, combined campaigns: drawing 84; for Late Speed Effect Size, combined campaigns / Late Speed Percent TSA, combined campaigns / Late Speed Percent TSA / Late Speed Adj Value / Late Speed Effect Size: days 8 to 10; for Early Speed Effect Size, Summary / Early Speed Percent TSA, Summary: days 1-7; for Late Speed Effect Size, Summary / Late Speed Percent TSA, Summary: days 8-10; for Early Speed Effect Size: food conc 50 (unit not printed; b38: μM); for Early Speed Effect Size / Late Speed Effect Size: vs DMSO carrier; for Early Speed Effect Size / Early Speed Adj Value / Early Speed Percent TSA / Late Speed Percent TSA / Late Speed Adj Value / Late Speed Effect Size: single campaigns; for Early Speed Percent TSA: effect size as percentage of positive control TSA; for Late Speed Percent TSA: effect size as percentage of TSA
Procedure: Female “activator” or “driver” flies were engineered to contain the neuronal specific drivers elav-GAL4 or nirvana-GAL4 in a heat shock-hid Y (phs-hidY or HS-hid+ on Y chomosome) background (Starz-Gaiano et al., 2001). The hid gene is a pro-apoptotic gene, which is expressed in this line by a heat inducible promoter. These flies can be heat shocked in bottles twice over 2 days for 2 hours to kill male larvae and thereby produce massive numbers of elav-GAL4 or nirvana-GAL4 virgin females.
For the mass production of males (either UAS-htt128Q[F27B]/UAS-htt128Q[F27B], the disease transgenes were moved into lines that contain an attached X-chromosome with the same phs-hid element (X^XPhs-hidY) used above. In this scheme the hid gene is present only in female flies and therefore is used to produce large numbers of male flies by heat shock. The massive collection of virgin female elav-GAL4 flies are crossed with the massive collection of males that contain the silent disease-transgene. Their progeny, the F1 generation, are the “assay flies” (e.g., elav-GAL4UAS-htt128Q[F27B]). These assay flies are robotically distributed into drugged assay vials.
The HD Drosophila model express exons 1 to 4 of the human huntingtin gene with 128Q repeats in exon 1. The construct was cloned into the Drosophila transformation vector, pUAST. These were then crossed to GAL4 driver lines that direct expression either to the eye (GMR-GAL4 promoter) or to neurons (elav-GAL4 promoter). […] Progressive degeneration of the photoreceptors was observed after several days of adult life. The properties of the HD128Q flies were consistent with those reported by others for two other strains in which exon-1 containing expanded repeats was expressed in the eye (Jackson et al., 1998; Steffan et al., 2001—US20040142859). To test the effects on motor function of the HD mutation, HD128Q lines were examined in which the transgene was expressed in all neurons. Motor function was assayed by tapping flies in a vial to the bottom and measuring the number of flies that are able to climb to a specified height within a specific length of time. When tapped to the bottom of a vial, wild-type flies rapidly climb to the top, where most of them remain. […] The decline in motor performance was progressive, leading to early death. […] The HD128Q model thus has a functional deficit that in its phenotypic and neuropathological characteristics appears to be related to that seen in the human disease. Moreover, as the deficit is quantifiable and reproducible, it is suitable for automated high-throughput screening.
Standard environmental conditions were followed to establish that different metrics detect differences between disease and control flies. A comparison of compound-treated HD flies and untreated HD flies was also included. The positive control compound tested was the Histone Deacetylase (HDAC) inhibitor Trichostatin-A (TSA).
In an assay run (typically corresponding to one day of an entire multi-day assay) the following process was followed. Each tube was dropped onto a surface, causing the flies to fall to the bottom of the tube and be subjected to impact shock stimulation. Their immediate negative geotaxis response to that event was thereafter captured in a 7.5 second movie. For each tube, this step was repeated five times, giving a total of five repeat videos per tube and run. The raw data for each video were analyzed and trajectories following the movements of individual flies in a tube were generated. The method for analyzing fly trajectories is described in published U.S. Patent Application 2004/0076318A1, which is hereby incorporated by reference in its entirety. The trajectories consisted of a list of x- and y-coordinates mapping out the positions of all the flies in the video, as well as measurements of size, orientation, length and width of the flies, with one list entry for every frame from when the fly started moving in one frame until it stopped in another. […]

R6/2 transgenic mice = test: Rotarod test in R6/2 transgenic mouse model of Huntington's disease; format: in vivo
Procedure: The rotarod test and body weight measurements were used to assess the therapeutic effects of clotrimazole in R6/2 transgenic mice. R6/2 and WT male mice at 4 weeks of age were trained 3 consecutive days on the accelerating rotarod. Each training day consisted of four sessions. After the training was complete, the animals were reassigned to new groups to create statistically homogenous cohorts. At 5 weeks of age, animals (n=10 per group) were dosed twice daily, intraperitoneally (IP) with clotrimazole at either 2 mg/kg or 10 mg/kg (equal to 4 and 20 mg/kg per day). Rotarod testing was performed at 6, 8, 10, and 12 weeks of age as described above. Body weights were collected every week.

R6/2 mice = test: Cage climbing and rearing in R6/2 mice; format: in vivo, mouse; conditions: for Cage climbing: 12 weeks
Excerpt: Cage climbing analysis involves filming a 10cm tall cylindrical cage into which an R6/2 (+/−drug) or WT mouse is placed. The mouse is allowed to move naturally ad libetum for a five minute session within the confines of the cage, while events such as rearing occurrences, climbing time and latency to climb are documented. Cage climbing and rearing data were collected at 12 weeks in this study.

[2] = cited from earlier work
[3] = conc 50, campaigns drawing 83, drawing 85
[4] = conc 100, campaigns drawing 74, drawing 76, drawing 83, drawing 89
[5] = conc 150, campaigns drawing 83, drawing 86, drawing 88, drawing 89
[6] = dose 50, weighted average of campaigns drawing 83, drawing 84 (Table 1)
[7] = dose 100, weighted average of campaigns drawing 74, drawing 76, drawing 83, drawing 84 (Table 1)
[8] = dose 150, weighted average of campaigns drawing 83, drawing 84 (Table 1)
[9] = food conc 50, listed as CLOTRIMAZOLE

Structure (SMILES): Clc1ccccc1C(c1ccccc1)(c1ccccc1)n1ccnc1 [clotrimazole]
- Early Speed Effect Size, combined campaigns [1, 3]: 0.867
- Early Speed Percent TSA, combined campaigns [1, 3]: 37.7%
- Late Speed Effect Size, combined campaigns [1, 3]: 1.076
- Late Speed Percent TSA, combined campaigns [1, 3]: 36.3%
- Early Speed Effect Size, combined campaigns [1, 4]: 0.89
- Early Speed Percent TSA, combined campaigns [1, 4]: 32%
- Late Speed Effect Size, combined campaigns [1, 4]: 1.372
- Late Speed Percent TSA, combined campaigns [1, 4]: 36.8%
- Early Speed Effect Size, combined campaigns [1, 5]: 1.211
- Early Speed Percent TSA, combined campaigns [1, 5]: 43.8%
- Late Speed Effect Size, combined campaigns [1, 5]: 1.664
- Late Speed Percent TSA, combined campaigns [1, 5]: 42.8%
- Early Speed Effect Size, Summary [1, 6]: 0.8
- Early Speed Percent TSA, Summary [1, 6]: 25.9%
- Late Speed Effect Size, Summary [1, 6]: 1.43
- Late Speed Percent TSA, Summary [1, 6]: 35.7%
- Early Speed Effect Size, Summary [1, 7]: 1.13
- Early Speed Percent TSA, Summary [1, 7]: 39.6%
- Late Speed Effect Size, Summary [1, 7]: 1.42
- Late Speed Percent TSA, Summary [1, 7]: 39.6%
- Early Speed Effect Size, Summary [1, 8]: 1.35
- Early Speed Percent TSA, Summary [1, 8]: 41.6%
- Late Speed Effect Size, Summary [1, 8]: 1.8
- Late Speed Percent TSA, Summary [1, 8]: 42.7%
- Climbing assay, dose dependence ([1]; doses 50, 100, 150 (Table 1)): dose-dependent effect
- Early Speed Effect Size [1]: 0.73 and 0.88
- Early Speed Effect Size ([1]; listed as CLOTRIMAZOLE): 0.725 and 0.882 and 0.932
- Early Speed Adj Value ([1]; food conc 50 (μM)): 11.2 and 10.98 and 10.15
- Early Speed Percent TSA ([1]; food conc 50): 26.3% and 25.4%
- Early Speed Percent TSA [1, 9]: 26.3% and 25.4% and 48.8%
- Late Speed Percent TSA ([1]; food conc 50): 38.8% and 31.5%
- Late Speed Percent TSA [1, 9]: 38.8% and 31.5% and 36.8%
- Late Speed Adj Value ([1]; food conc 50): 6.587 and 5.802 and 6.193
- Late Speed Effect Size ([1]; food conc 50): 1.46 and 1.39
- Late Speed Effect Size [1, 9]: 1.458 and 1.39 and 0.767
- Early Speed Adj Value ([1]; food conc 100 (μM)): 10.12 and 11.32 and 11.4873 and 10.63 and 10.84
- Late Speed Adj Value ([1]; food conc 100): 5.805 and 5.534 and 6.208 and 6.981 and 6.155
- Early Speed Adj Value ([1]; food conc 150 (unit not given)): 11.15 and 11.68 and 10.57 and 10.74 and 11.13
- Late Speed Adj Value ([1]; food conc 150): 6.189 and 6.817 and 5.855 and 5.983 and 6.595
- Effect in Drosophila model of HD ([1]; vs carrier controls, metrics early speed (days 1-7) and late speed (days 8-10)): reproducible positive effects
- Rotarod effect (R6/2 transgenic mice; 20 mg/kg/day IP-BID, any time point tested (6, 8, 10, 12 weeks of age)): did not have a statistically significant effect
- Rotarod effect vs vehicle-treated R6/2 animals (R6/2 transgenic mice; at the higher dose as printed, P=0.01 (Wilcoxon test)): statistically-significant effect
- Behavior in vivo (rotarod) (R6/2 transgenic mice; low dose of 4 mg/kg/day (2 mg/kg IP twice daily), preliminary data): positively affects
- Cage climbing (R6/2 mice; 4 mg/kg (low dose)): Statistically significant improvement
- Cage climbing (R6/2 mice; 20 mg/kg (high dose)): Statistically significant improvement
- Motor performance by cage climbing and rearing (R6/2 mice; 4 and 20 mg/kg dosing, preliminary data): significantly improved the motor performance
- Known side effects in humans [2]: lethargy, apathy, and weakness
